Assays:
AKI mice [1] = assay: survival of AKI mice; assay type: in vivo, mouse; settings: n = 10 per group
Description: (§1) Aristolochic acid I sodium salt was dissolved in PBS to 1 mg/mL and injected intraperitoneally at a dose of 10 mg/kg (body weight) every 24 h for 3 days; cisplatin was dissolved in PBS to 1.5 mg/mL for one-time intraperitoneal 25 mg/kg injection; LPS (Sigma, Cat#L2630) was dissolved in PBS to 2.5 mg/mL for one-time intraperitoneal 25 mg/kg injection; deoxyribonuclease I (DNase I, Sigma, Cat#SLBV1446) was dissolved in PBS to 1 mg/mL and injected intraperitoneally at a dose of 10 mg/kg at 4 h before cisplatin or AA I injection and every 24 h after injection. Disulfiram (MedChemExpress, CAS:97-77-8) was diluted in corn oil to 12.5 mg/mL and injected 50 mg/kg intraperitoneally every 24 h after cisplatin or AA I administration. Cu(II) (Sigma, Cat#344419) was dissolved in PBS to 30 µg/mL and administered intraperitoneally 6 h before disulfiram at a dose of 0.15 mg/kg; TNF-α (Peprotech, Cat#315-01 A) was dissolved in PBS to 10 µg/mL and injected at 100 µg/kg once through the caudal vein 24 h before cisplatin injection. Metformin (Sigma, Cat#D150959) was dissolved in PBS to 5 mg/mL and injected intraperitoneally at a dose of 50 mg/kg 24 h before cisplatin or AA I injection and every 24 h after injection. MCC950 (MedChem Express, CAS:256373-96-3) was dissolved in PBS to 5 mg/mL and injected intraperitoneally at a dose of 50 mg/kg 12 h before cisplatin or AA I injection and every 12 h after injection; berberine (APExBIO, Cat#N1368) was dissolved in PBS to 5 mg/mL and 5 mg/kg injected intraperitoneally at 36, 24 and 12 h before cisplatin; A20-derived-peptide was dissolved in ddH2O to 3 mg/mL and injected intraperitoneally at a dose of 15 mg/kg 1 h before cisplatin. To supervise the effects of various treatments on survival time and rate, the mice were observed, and survival curves were generated. To investigate the specific mechanisms, whole blood was retrieved from the orbit, serum was separated through centrifugation on the 4th day, and the mice were then sacrificed by cervical dislocation. Mice were randomly assigned in experiments, while there was no blinding during the animal experiments.

AKI mice [2] = assay: serum creatinine of AKI mice; assay type: in vivo, mouse
Description: (§2) LPS (Sigma, Cat#L2630) was dissolved in PBS to 2.5 mg/mL for one-time intraperitoneal 25 mg/kg injection; deoxyribonuclease I (DNase I, Sigma, Cat#SLBV1446) was dissolved in PBS to 1 mg/mL and injected intraperitoneally at a dose of 10 mg/kg at 4 h before cisplatin or AA I injection and every 24 h after injection. Disulfiram (MedChemExpress, CAS:97-77-8) was diluted in corn oil to 12.5 mg/mL and injected 50 mg/kg intraperitoneally every 24 h after cisplatin or AA I administration. Cu(II) (Sigma, Cat#344419) was dissolved in PBS to 30 µg/mL and administered intraperitoneally 6 h before disulfiram at a dose of 0.15 mg/kg; TNF-α (Peprotech, Cat#315-01 A) was dissolved in PBS to 10 µg/mL and injected at 100 µg/kg once through the caudal vein 24 h before cisplatin injection. […] MCC950 (MedChem Express, CAS:256373-96-3) was dissolved in PBS to 5 mg/mL and injected intraperitoneally at a dose of 50 mg/kg 12 h before cisplatin or AA I injection and every 12 h after injection; berberine (APExBIO, Cat#N1368) was dissolved in PBS to 5 mg/mL and 5 mg/kg injected intraperitoneally at 36, 24 and 12 h before cisplatin; […] To supervise the effects of various treatments on survival time and rate, the mice were observed, and survival curves were generated. To investigate the specific mechanisms, whole blood was retrieved from the orbit, serum was separated through centrifugation on the 4th day, and the mice were then sacrificed by cervical dislocation. Mice were randomly assigned in experiments, while there was no blinding during the animal experiments. Renal function was evaluated based on serum creatinine level and histological features. Serum creatinine was determined in the Clinical Pharmacology Lab, Clinical Trial Center, WCH, SCU. The kidneys were extracted from euthanized mice, immediately fixed with 4% paraformaldehyde, and embedded in paraffin. Furthermore, the samples were cut into 5 µm thick sections. These tissue samples were subjected to hematoxylin-eosin (HE) and […] according to standard protocols with HE reagent (Biosharp, Cat#BL702B, BL703B) and Masson reagent (Servicebio, Cat#G1006-100ML). The pathological changes were detected through optical microscopy, and the tubulointerstitial injury score was determined as previously reported.

AKI mice [3] = assay: tubular injury / renal injury of AKI mice (HE histology); assay type: in vivo, mouse
Description: as §2

AKI mice [4] = assay: renal fibrosis of AKI mice (Masson staining); assay type: in vivo, mouse; settings: Cis mice; metformin 50 mg/kg i.p. 24 h before and every 24 h after; n = 5
Description: LPS (Sigma, Cat#L2630) was dissolved in PBS to 2.5 mg/mL for one-time intraperitoneal 25 mg/kg injection; deoxyribonuclease I (DNase I, Sigma, Cat#SLBV1446) was dissolved in PBS to 1 mg/mL and injected intraperitoneally at a dose of 10 mg/kg at 4 h before cisplatin or AA I injection and every 24 h after injection. Disulfiram (MedChemExpress, CAS:97-77-8) was diluted in corn oil to 12.5 mg/mL and injected 50 mg/kg intraperitoneally every 24 h after cisplatin or AA I administration. Cu(II) (Sigma, Cat#344419) was dissolved in PBS to 30 µg/mL and administered intraperitoneally 6 h before disulfiram at a dose of 0.15 mg/kg; TNF-α (Peprotech, Cat#315-01 A) was dissolved in PBS to 10 µg/mL and injected at 100 µg/kg once through the caudal vein 24 h before cisplatin injection. […] Renal function was evaluated based on serum creatinine level and histological features. Serum creatinine was determined in the Clinical Pharmacology Lab, Clinical Trial Center, WCH, SCU. […] The pathological changes were detected through optical microscopy, and the tubulointerstitial injury score was determined as previously reported.

NEK7 [5] = assay: NEK7 expression in iBMDMs (immunoblot); assay type: cell-based, mouse; settings: LPS plus metformin 0, 1, 2 or 5 mM, Fig. 9a
Description: For immunoblot analysis of kidney tissue, total protein lysates were prepared from renal tissue, which was ground in liquid nitrogen and then added to lysis buffer in a Total Protein Extraction Kit (Signalway Antibody, Cat#PE001). Samples were centrifuged at 12,000 rpm for 15 min at 4 °C, and the supernatant was collected immediately. For immunoblot analysis of cells, cultured cells after treatment were lysed with lysis buffer, which was premixed with protease and phosphatase inhibitors (Signalway Antibody, Cat#PE001). The samples were centrifuged at 12,000 r/min for 15 min at 4 °C, and the supernatant was collected immediately. Ultimately, both types of protein samples were then mixed with 4× Laemmli loading buffer (Bio-Rad, Cat#1610747) and denatured by boiling at 95 °C for 5 min.
Prepared protein samples were subjected to 6-15% SDS polyacrylamide gels and separated according to the protein concentrations. Then, the protein bands were transferred to polyvinylidene difluoride (PVDF) membranes by a wet transfer apparatus (Bio-Rad, USA). […] The protein bands were detected with an enhanced chemiluminescence kit (Millipore, Cat#WBKLS0500) using a gel imaging system (Bio-Rad, USA) for visualization and standardization of the amount of protein loaded. α-Tubulin was used as the internal control.

NEK7 [6] = assay: NEK7 expression in renal tissue of mice (immunoblot); assay type: in vivo, mouse; settings: Cis mice, metformin 50 mg/kg i.p., Fig. 9b
Description: For immunoblot analysis of kidney tissue, total protein lysates were prepared from renal tissue, which was ground in liquid nitrogen and then added to lysis buffer in a Total Protein Extraction Kit (Signalway Antibody, Cat#PE001). Samples were centrifuged at 12,000 rpm for 15 min at 4 °C, and the supernatant was collected immediately. […] Ultimately, both types of protein samples were then mixed with 4× Laemmli loading buffer (Bio-Rad, Cat#1610747) and denatured by boiling at 95 °C for 5 min.
Prepared protein samples were subjected to 6-15% SDS polyacrylamide gels and separated according to the protein concentrations. Then, the protein bands were transferred to polyvinylidene difluoride (PVDF) membranes by a wet transfer apparatus (Bio-Rad, USA). […] The protein bands were detected with an enhanced chemiluminescence kit (Millipore, Cat#WBKLS0500) using a gel imaging system (Bio-Rad, USA) for visualization and standardization of the amount of protein loaded. α-Tubulin was used as the internal control. […]

NEK7 [7] = settings: low dose; cited from earlier work
Excerpt: Furthermore, we investigated the potential therapeutic medicines targeting to NEK7 and evaluated their effects on alleviating AKI. […] A ...

AKI mice [8] = assay: overall therapeutic effect in AKI mice; assay type: in vivo, mouse; settings: TNF-α vs Anc80L65 (A20 overexpression)
Description: as §1

BMDMs = assay: pyroptotic induction of BMDMs by ox-DNA or LPS plus ATP (immunoblot of GSDMD); assay type: cell-based, mouse; settings: BMDMs pretreated with low-dose TNF-α before ox-dsDNA90 or LPS plus ATP; Fig. 6l
Description: Primary bone marrow-derived macrophages (BMDMs) were isolated from 6- to 8-week-old C57BL/6J male mice. The mice were sacrificed and soaked in 75% alcohol for 1–2 min. The femurs and tibias were removed and immersed in PBS containing 500 U/mL penicillin and […] streptomycin for 3 min. The marrow cavities were repeatedly rinsed with DMEM using a sterile 1 mL syringe. The cell suspension was collected and centrifuged at 300 × g for 10 min, and the supernatant was discarded. The cell pellet was resuspended in 5 mL red cell lysis buffer (Bio Sharp, Cat#BL503A) on ice for 5 min, followed by centrifugation, and the supernatant was removed. The cells were then resuspended in DMEM complete culture medium supplemented with 10% FBS and 30% L929 cell-conditioned medium as an induction factor.[51] Half of the medium was changed every other day for 5–7 days. The suspended cells were removed, and the adherent BMDMs were digested with trypsin and plated on a six-well plate at a density of 1 × 10^6 cells/well. […]
Prepared protein samples were subjected to 6-15% SDS polyacrylamide gels and separated according to the protein concentrations. […] The protein bands were detected with an enhanced chemiluminescence kit (Millipore, Cat#WBKLS0500) using a gel imaging system (Bio-Rad, USA) for visualization and standardization of the amount of protein loaded. α-Tubulin was used as the internal control.

patients = settings: first course of cisplatin treatment; cited from earlier work
Excerpt: Acute kidney injury (AKI) is a life-threatening condition characterized by a rapid loss of renal function, leading to high mortality and morbidity.[1],[2] Approximately 13% of patients received the first course of cisplatin treatment developed AKI.[2],[3] Despite various initial triggers, the pathophysiology of AKI often involves common pathogenic denominators, such as cell death, tissue injury, and drastic inflammation.[4] Several types of cell death have been recently described in AKI, and multiple strategies targeting cell death have been reported to help mitigate the progression of AKI.[5] ...

[9] = Cis mice, metformin 50 mg/kg i.p. 24 h before and every 24 h after
[10] = Cis or AA I mice, TNF-α 100 µg/kg pre-injection

CN(C)C(=N)N=C(N)N [metformin, Metformin]
survival (AKI mice [1]; [9]): longer survival time and better survival rate | serum creatinine (in words) (AKI mice [2]; [9]): markedly ameliorated cisplatin-induced serum creatines | tubular injury (in words) (AKI mice [3]; [9]): markedly ameliorated cisplatin-induced serum creatines, tubular injury | renal fibrosis (AKI mice [4]): markedly ameliorated cisplatin-induced serum creatines, tubular injury, renal fibrosis | NEK7 expression in vitro (NEK7 [5]): downregulates NEK7 | NEK7 expression in vivo (NEK7 [6]): downregulates NEK7 | NEK7 expression (literature) (NEK7 [7]): limit the expression of NEK7 to alleviate inflammation

TNF-α
survival (AKI mice [1]; Cis or AA I mice, TNF-α 100 µg/kg once through the caudal vein 24 h before): extended overall survival benefit | serum creatinine (in words) (AKI mice [2]; [10]): alleviated serum creatinine | tubular injury (in words) (AKI mice [3]; [10]): alleviated serum creatinine and tubular injury | alleviation of AKI compared with Anc80L65 (AKI mice [8]): more efficient in alleviating AKI | resistance of BMDMs to pyroptotic induction (BMDMs): more resistant to pyroptotic induction

N.N.[Cl][Pt][Cl] [cisplatin]
patients developing AKI after first course of treatment (patients): Approximately 13%

Reference: paper PMC12032302, “A20 attenuates oxidized self-DNA-mediated inflammation in acute kidney injury” (Signal Transduction and Targeted Therapy, 2025)
